pIC50: −log10 of the molar value.

This assay addresses T1, CCR2 (Homo sapiens, UniProt P41597).
T1 construct: host or cells: THP-1 (human monocytic cell line)
The experiment in a line: MCP-1 Receptor Binding Assay in THP-1 Cells. The note with it: read-out: MCP1B_v3 IC50. As to the method: Compounds of the invention were subjected to various representative biological tests. […] MCP-1 Receptor Binding Assay in THP-1 Cells Human monocytic cell line THP-1 cells were obtained from American Type Culture Collection (Manassas, Va., USA). The THP-1 cells were grown in RPMI-1640 (RPMI: Roswell Park Memorial Institute Medium-cell culture growth media) supplemented with 10% fetal bovine serum in a humidified 5% CO2 atmosphere at 37° C. The cell density was maintained between […].
THP-1 (cells were incubated with 0.5 nM ^125I labeled MCP-1 (Perkin-Elmer Life Sciences, Inc. Boston, Mass.) in the presence of varying concentrations of either unlabeled MCP-1 (R & D Systems, Minneapolis, Minn.) or test compound for 2 hours at 30° C. in a 96 well plate. Cells were then harvested onto a filter plate, dried, and 20 μL of Microscint 20 was added to each well. Plates were counted in a TopCount NXT, Microplate Scintillation & Luminescence Counter (Perkin-Elmer Life Sciences, Inc. Boston, Mass.). Blank values (buffer only) were subtracted from all values and drug treated values were compared to vehicle treated values. 1 μM cold MCP-1 was used for nonspecific binding.

T1 sequence (P41597 whole entry): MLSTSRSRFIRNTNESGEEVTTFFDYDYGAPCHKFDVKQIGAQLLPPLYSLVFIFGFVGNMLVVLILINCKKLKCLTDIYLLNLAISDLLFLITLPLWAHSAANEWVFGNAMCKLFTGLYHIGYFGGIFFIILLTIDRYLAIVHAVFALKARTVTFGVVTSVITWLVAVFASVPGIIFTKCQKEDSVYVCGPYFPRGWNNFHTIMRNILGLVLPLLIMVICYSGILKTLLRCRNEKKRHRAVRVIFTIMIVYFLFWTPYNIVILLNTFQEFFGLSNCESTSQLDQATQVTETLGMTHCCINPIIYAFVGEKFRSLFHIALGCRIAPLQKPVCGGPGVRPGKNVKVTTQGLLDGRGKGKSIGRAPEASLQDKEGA

A word on the pIC50: it is the negative decadic logarithm of the IC50, by convention in mol/L. Turning to `COC1COCCC1N[C@@H]1C[C@H]2CN(C(=O)NC(C)C)C[C@@]2(C(=O)N2CCc3ncc(C(F)(F)F)cc3C2)C1` (relative stereo) [Example 14, (3aR,5R,6aR)-N-Isopropyl-5-(((3S*,4S*)-(3-methoxytetrahydro-2H-pyran-4-yl)amino)-3a-(3-(trifluoromethyl)-5,6,7,8-tetrahydro-1,6-naphthyridine-6-carbonyl)hexahydrocyclopenta[c]pyrrole-2(1H)-carboxamide], the pIC50 was 6.39.
Next, `COC1COCCC1N[C@@H]1C[C@H]2CN(C(=O)NCC(C)C)C[C@@]2(C(=O)N2CCc3ncc(C(F)(F)F)cc3C2)C1` (relative stereo) [Example 15, (3aR,5R,6aR)-N-Isobutyl-5-(((3S*4S*)-(3-methoxytetrahydro-2H-pyran-4-yl)amino)-3a-(3-(trifluoromethyl)-5,6,7,8-tetrahydro-1,6-naphthyridine-6-carbonyl)hexahydrocyclopenta-[c]pyrrole-2(1H)-carboxamide]: 6.96.
For `COC1COCCC1N[C@@H]1C[C@H]2CN(C(=O)Nc3ccccc3)C[C@@]2(C(=O)N2CCc3ncc(C(F)(F)F)cc3C2)C1` (relative stereo) [Example 16, (3aR,5R,6aR)-5-(((3S*,4S*)-(3-methoxytetrahydro-2H-pyran-4-yl)amino)-N-phenyl-3a-(3-(trifluoromethyl)-5,6,7,8-tetrahydro-1,6-naphthyridine-6-carbonyl)hexahydrocyclopenta-[c]pyrrole-2(1H)-carboxamide] the value was 6.33; for `COC1COCCC1N[C@@H]1C[C@H]2CN(C(=O)NCc3ccccc3)C[C@@]2(C(=O)N2CCc3ncc(C(F)(F)F)cc3C2)C1` (relative stereo) [Example 17, (3aR,5R,6aR)-N-benzyl-5-(((3S*,4S*)-(3-methoxytetrahydro-2H-pyran-4-yl)amino)-3a-(3-(trifluoromethyl)-5,6,7,8-tetrahydro-1,6-naphthyridine-6-carbonyl)hexahydrocyclopenta-[c]pyrrole-2(1H)-carboxamide], 7.22.
For `COC1COCCC1N[C@@H]1C[C@H]2CN(C(=O)NCC(C)(C)C)C[C@@]2(C(=O)N2CCc3ncc(C(F)(F)F)cc3C2)C1` (relative stereo) [Example 18, (3aR,5R,6aR)-5-(((3S*,4S*)-3-Methoxytetrahydro-2H-pyran-4-yl)amino)-N-neopentyl-3a-(3-(trifluoromethyl)-5,6,7,8-tetrahydro-1,6-naphthyridine-6-carbonyl)hexahydrocyclopenta[c]pyrrole-2(1H)-carboxamide] the value was 6.39; for `COCCNC(=O)N1C[C@@H]2C[C@@H](NC3CCOCC3OC)C[C@]2(C(=O)N2CCc3ncc(C(F)(F)F)cc3C2)C1` (relative stereo) [Example 19, (3aR,5R,6aR)-N-(2-Methoxyethyl)-5-(((3S*,4S*)-3-methoxytetrahydro-2H-pyran-4-yl)amino)-3a-(3-(trifluoromethyl)-5,6,7,8-tetrahydro-1,6-naphthyridine-6-carbonyl)hexahydrocyclopenta[c]pyrrole-2(1H)-carboxamide], 6.42.
On to `COC1COCCC1N[C@@H]1C[C@H]2CN(C(=O)N(C)C)C[C@@]2(C(=O)N2CCc3ncc(C(F)(F)F)cc3C2)C1` (relative stereo) [Example 21, (3aR,5R,6aR)-5-(((3S*,4S*)-3-Methoxytetrahydro-2H-pyran-4-yl)amino)-N,N-dimethyl-3a-(3-(trifluoromethyl)-5,6,7,8-tetrahydro-1,6-naphthyridine-6-carbonyl)hexahydrocyclopenta[c]pyrrole-2(1H)-carboxamide], for which the negative logarithm of the IC50 (pIC50) was 6.66.
On to `COC1COCCC1N[C@@H]1C[C@H]2CN(C(=O)N3CCOCC3)C[C@@]2(C(=O)N2CCc3ncc(C(F)(F)F)cc3C2)C1` (relative stereo) [Example 22, ((3aR,5R,6aR)-5-(((3S*,4S*)-3-Methoxytetrahydro-2H-pyran-4-yl)amino)-2-(morpholine-4-carbonyl)octahydrocyclopenta[c]pyrrol-3a-yl)(3-(trifluoromethyl)-7,8-dihydro-1,6-naphthyridin-6(5H)-yl)methanone], for which the pIC50 was 6.38.

Source of the values: patent publication US9024017B2, “Octahydro-cyclopentapyrrolyl antagonists of CCR2” (Janssen Pharmaceutica NV, priority 2012, dated 2015).
